Entries after “also recorded” stand apart in the source; their conditions may differ.
Legend:
NaPi2b [1] = assay: Intestinal (ileum) NaPi2b expression, immune fluorescence and RNA, in 5/6 nephrectomized DBA/2 mice; type: in vivo, DBA/2 mouse
Method: Further, the effect of nicotinamide treatment on intestinal NaPi2b protein expression in a mouse model (DBA/2 mouse) was investigated.
(§1) For this purpose, 5/6 nephrectomized DBA/2 mice were used as model for vascular calcification. The mice were treated with nicotinamide (NA) in a concentration of 600 µg/mL in the drinking water.
Bars between columns indicate significant between groups differences (ANOVA with Tukey Post Test, p<0.05).

[2] = S-phosphate and fractional phosphate elimination in DBA/2 mice; type: in vivo; settings: for fractional phosphate elimination (in words): DBA/2 mice
Method: as §1

FGF23 = FGF23 in DBA/2 mice; type: in vivo
Method: as §1

GPR109A receptor = GPR109A receptor (Homo sapiens, UniProt Q8TDS4); settings: cited from earlier work
[3] = given in combination with the phosphate binder sevelamer; cited from earlier work
NaPi2b [4] = settings: intraperitoneal administration; cited from earlier work
[5] = intraperitoneal administration; cited from earlier work
Lp(a) [6] = assay: Lp(a) plasma levels (Apo(a) ELISA) in transgenic Apo(a) mice given the substance in chow, cross-over design; settings: for reduction of Lp(a): 1% orally as food supplement, compared to baseline levels
Method: In the transgenic Apo(a) mice (tg-Apo(a)) Apo(a) is expressed mainly in female mice.
Levels of Apo(a) were determined by means of ELISA and were expressed as Lp(a) in mg/dl as each molecule Apo(a) binds one molecule of LDL to form Lp(a).

NaPi2b [7] = assay: Renal NaPi2b protein expression, immune fluorescence, in 5/6 nephrectomized DBA/2 mice; settings: 5/6 nephrectomized DBA/2 mice (CKD); Fig. 4
Apo(a) = settings: oral treatment with 1% nicotinic acid in the chow; female tg-Apo(a) mice; cited from earlier work
Lp(a) [8] = settings: literature values (Carlson, 1989; Kotani, 2017); cited from earlier work

Sequence of GPR109A receptor (Q8TDS4 whole entry): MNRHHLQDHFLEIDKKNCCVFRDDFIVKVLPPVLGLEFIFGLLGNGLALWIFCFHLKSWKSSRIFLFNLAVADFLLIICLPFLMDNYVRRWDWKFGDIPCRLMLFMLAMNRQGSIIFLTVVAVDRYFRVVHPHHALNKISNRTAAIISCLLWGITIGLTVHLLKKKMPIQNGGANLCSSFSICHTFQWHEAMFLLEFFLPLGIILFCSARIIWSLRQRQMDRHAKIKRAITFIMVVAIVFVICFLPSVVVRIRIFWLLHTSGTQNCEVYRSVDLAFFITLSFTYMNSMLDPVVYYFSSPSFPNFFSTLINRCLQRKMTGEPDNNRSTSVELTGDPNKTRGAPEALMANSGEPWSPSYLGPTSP

With `NC(=O)c1cccnc1` [nicotinamide] the “NaPi2b-RNA of the small intestine (in words)” value (NaPi2b [1]; DBA/2 mice, NA 600 µg/mL in the drinking water) was “did not show any influence”, the “fractional phosphate elimination (in words)” value [2] was “reduction” and the “S-phosphate (in words)” value ([2]; effect only in healthy DBA/2 mice with high phosphate diet (phosphorus content 1.03 % (w/w)), NA 600 µg/mL in the drinking water) was “decrease”. For the same molecule, the “FGF23 (in words)” value (FGF23) was “reduction”, the “binding to GPR109A receptor (in words)” value (GPR109A receptor) was “does not bind or otherwise affect” and the “treatment of hyperphosphatemia (in words)” value [3] was “ineffective”. The “expression of NaPi2b (in words)” value (NaPi2b [4]) was “blocks”, the “gastrointestinal absorption of phosphate (in words)” value [5] was “inhibits” and the “reduction of Lp(a)” value (Lp(a) [6]; after two weeks of treatment) was 77%. The “reduction of Lp(a)” value (Lp(a) [6]; after week 1) was 67% and the “Lp(a) plasma levels lower compared to nicotinic acid” value (Lp(a) [6]; after 2 weeks of treatment, Fig. 1 legend) was “more than 50%”.

In the case of `O=C(O)O` [magnesium carbonate], the “intestinal NaPi2b protein / cotransporter content of the small intestine (in words)” value (NaPi2b [1]; 5/6 nephrectomized DBA/2 mice, NA 600 µg/mL in the drinking water, Fig. 3) is reported as “strongly enhances”, the “intestinal NaPi2b protein / cotransporter content of the small intestine (in words)” value (NaPi2b [1]; 5/6 nephrectomized DBA/2 mice, NA 600 µg/mL in the drinking water, Fig. 3, listed as Mg) is reported as “notable increase” and the “intestinal NaPi2b protein / cotransporter content of the small intestine (in words)” value (NaPi2b [1]; 5/6 nephrectomized DBA/2 mice, NA 600 µg/mL in the drinking water, Fig. 3, listed as magnesium carbonate (Mg)) is reported as “strong enhancement”. For the same molecule, the “increase of cotransporter expression (intestinal NaPi2b)” value (NaPi2b [1]; 5/6 nephrectomized DBA/2 mice, treatment for 7 weeks, Fig. 3) was 10 -fold, the “fractional phosphate elimination (in words)” value [2] was “reduction” and the “FGF23 (in words)” value (FGF23) was “reduction”. For the same molecule, the “renal NaPi2b protein expression (in words)” value (NaPi2b [7]) was “no significant difference compared to baseline; also recorded: no significant effects”.

For `O=C(O)c1cccnc1` [nicotinic acid], the “reduction in plasma Apo(a) protein” value (Apo(a)) is given as 43%, the “reduces Lp(a)” value (Lp(a) [8]) is given as “up to 35%” and the “reduction of Lp(a)” value (Lp(a) [6]; after two weeks of treatment) is given as 50%. The “reduction of Lp(a)” value (Lp(a) [6]; after week 1) was 37%.
